Laboratory results taken from PubChem BioAssay AID192 (DTP/NCI, 2004).
Where “and” joins values, the source holds several entries; their conditions need not be identical. Equal entries are not always repeated. Inconclusive results and toxic doses are left out.

System: BDF1 mice, B16 melanoma ip, median survival T/C
Assay: NCI In Vivo Anticancer Drug Screen. Data for tumor model B16 Melanoma (intraperitoneal) in B6D2F1 (BDF1) mice
Conditions: endpoint: median survival time, higher = longer survival
Summary of the method: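 Mice with transplantable tumors; drug vs vehicle groups; endpoint survival or tumor size; value = T/C.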

[1] = dose: 6.25 mg/kg/injection, schedule: Q01DX009 (ip), vehicle: Klucel (hydroxypropylcellulose) (HPC)
[2] = dose: 12.5 mg/kg/injection, schedule: Q01DX009 (ip), vehicle: Klucel (hydroxypropylcellulose) (HPC)
[3] = dose: 25.0 mg/kg/injection, schedule: Q01DX009 (ip), vehicle: Klucel (hydroxypropylcellulose) (HPC)
[4] = dose: 100.0 mg/kg/injection, schedule: Q01DX009 (ip), vehicle: Klucel (hydroxypropylcellulose) (HPC)
[5] = dose: 200.0 mg/kg/injection, schedule: Q01DX009 (ip), vehicle: Klucel (hydroxypropylcellulose) (HPC)
[6] = dose: 400.0 mg/kg/injection, schedule: Q01DX009 (ip), vehicle: Klucel (hydroxypropylcellulose) (HPC)
[7] = dose: 1.5 mg/kg/injection, schedule: Q01DX009 (ip), vehicle: saline with Tween-80
[8] = dose: 3.0 mg/kg/injection, schedule: Q01DX009 (ip), vehicle: saline with Tween-80
[9] = dose: 25.0 mg/kg/injection, schedule: Q04DX003 (ip), vehicle: Klucel (hydroxypropylcellulose) (HPC)
[10] = dose: 50.0 mg/kg/injection, schedule: Q01DX009 (ip), vehicle: Klucel (hydroxypropylcellulose) (HPC)
[11] = dose: 6.25 mg/kg/injection, schedule: Q01DX009 (ip), vehicle: saline
[12] = dose: 12.5 mg/kg/injection, schedule: Q01DX009 (ip), vehicle: saline

CCCc1c2cc(OC)c(OC)cc2cc2c3cc(OC)c(OC)cc3cc[n+]12 (tested in a mixture with another compound)
T/C [1]: 100 % of control
T/C [2]: 96 % of control
T/C [3]: 100 % of control

Cc1ccc(Cl)cc1NC(=O)c1ccccc1C(=O)O
T/C [4]: 93 % of control
T/C [5]: 93 % of control
T/C [6]: 103 % of control

C[CH2][Pb]([CH2]C)([CH2]C)[O]C(=O)COc1ccccc1
T/C [7]: 104 % of control
T/C [8]: 107 % of control
T/C (dose: 6.25 mg/kg/injection, schedule: Q01DX009 (ip), vehicle: saline with Tween-80): 108 % of control

CCCCCCCCCCCCCCCC#N
T/C [9]: 99 % of control
T/C (dose: 50.0 mg/kg/injection, schedule: Q04DX003 (ip), vehicle: Klucel (hydroxypropylcellulose) (HPC)): 96 % of control
T/C (dose: 100.0 mg/kg/injection, schedule: Q04DX003 (ip), vehicle: Klucel (hydroxypropylcellulose) (HPC)): 92 % of control

COc1cc2c3c(c1)-c1nc4ccccc4cc1CN3CCC2
T/C (dose: 25.0 mg/kg/injection, schedule: Q04DX003 (ip), vehicle: alcohol): 111 % of control
T/C (dose: 50.0 mg/kg/injection, schedule: Q04DX003 (ip), vehicle: alcohol): 104 % of control
T/C (dose: 100.0 mg/kg/injection, schedule: Q04DX003 (ip), vehicle: alcohol): 106 % of control
T/C (dose: 200.0 mg/kg/injection, schedule: Q04DX003 (ip), vehicle: alcohol): 98 % of control

CCCC[N+](CCCC)(CCCC)CCCC.Cc1ccc([SH2+])c([SH2+])c1.Cc1ccc([SH2+])c([SH2+])c1.[Fe+3]
T/C [3]: 93 % of control
T/C (dose: 25.0 mg/kg/injection, schedule: Q01DX009 (ip), vehicle: saline with Tween-80): 97 % of control
T/C [10]: 99 % of control
T/C (dose: 50.0 mg/kg/injection, schedule: Q01DX009 (ip), vehicle: saline with Tween-80): 98 % of control
T/C [4]: 93 % of control
T/C (dose: 100.0 mg/kg/injection, schedule: Q01DX009 (ip), vehicle: saline with Tween-80): 103 % of control
T/C [5]: 93 % of control
T/C (dose: 200.0 mg/kg/injection, schedule: Q01DX009 (ip), vehicle: saline with Tween-80): 98 % of control

CCc1c2cc(OC)c(OC)cc2cc2c3cc(OC)c(OC)cc3cc[n+]12 (tested in a mixture with another compound)
T/C (dose: 4.8 mg/kg/injection, schedule: Q01DX009 (ip), vehicle: saline): 98 % of control
T/C (dose: 9.5 mg/kg/injection, schedule: Q01DX009 (ip), vehicle: saline): 98 % of control
T/C (dose: 19.0 mg/kg/injection, schedule: Q01DX009 (ip), vehicle: saline): 99 % of control
T/C (dose: 37.5 mg/kg/injection, schedule: Q01DX009 (ip), vehicle: saline with Tween-80): 117 % of control
T/C (dose: 38.0 mg/kg/injection, schedule: Q01DX009 (ip), vehicle: saline): 95 % of control
T/C (dose: 75.0 mg/kg/injection, schedule: Q01DX009 (ip), vehicle: saline with Tween-80): 108 % of control
T/C (dose: 150.0 mg/kg/injection, schedule: Q01DX009 (ip), vehicle: saline with Tween-80): 98 % of control

O=C(O)CC[S-].[Ag+]
T/C (dose: 25.0 mg/kg/injection, schedule: Q01DX009 (ip), vehicle: saline): 99 % of control
T/C (dose: 50.0 mg/kg/injection, schedule: Q01DX009 (ip), vehicle: saline): 111 % of control
T/C (dose: 100.0 mg/kg/injection, schedule: Q01DX009 (ip), vehicle: saline): 97 % of control

BrCCC[P+](c1ccccc1)(c1ccccc1)c1ccccc1
T/C (dose: 3.13 mg/kg/injection, schedule: Q01DX009 (ip), vehicle: Klucel (hydroxypropylcellulose) (HPC)): 106 % of control
T/C (dose: 3.13 mg/kg/injection, schedule: Q01DX009 (ip), vehicle: saline): 105 % of control
T/C (dose: 3.13 mg/kg/injection, schedule: Q04DX003 (ip), vehicle: saline): 89 % of control
T/C [1]: 103 % of control
T/C [11]: 100 % of control
T/C (dose: 6.25 mg/kg/injection, schedule: Q04DX003 (ip), vehicle: saline): 89 % of control
T/C [2]: 106 % of control
T/C [12]: 107 % of control
T/C (dose: 12.5 mg/kg/injection, schedule: Q04DX003 (ip), vehicle: saline): 89 % of control
T/C [3]: 90 % of control
T/C [9]: 90 % of control

O=c1oc(-c2ccco2)nc2ccccc12
T/C [10]: 112 % of control
T/C [4]: 106 % of control
T/C [5]: 112 % of control

C=C1C(=O)OC2CC1C(OC(C)=O)CC1(C)OC1CCC1(C)OC1CCC2(C)O (configuration not stated)
T/C [1]: 102 % of control
T/C [2]: 97 % of control
T/C [3]: 100 % of control
T/C [10]: 92 % of control

NC(=O)c1ncn(C2OC(CO)C(O)C2O)c1O (configuration not stated)
T/C [3]: 104 % of control
T/C [10]: 114 % of control
T/C [4]: 109 % of control
T/C [5]: 111 % of control

CC(CN1CCN(C)CC1)CN1c2ccccc2Sc2ccc(C(F)(F)F)cc21 (configuration not stated)
T/C (dose: 1.56 mg/kg/injection, schedule: Q01DX009 (ip), vehicle: saline): 110 % of control
T/C (dose: 3.12 mg/kg/injection, schedule: Q01DX009 (ip), vehicle: saline): 110 % of control
T/C [11]: 123 % of control
T/C [12]: 107 % of control

COC(=O)C[C@](O)(CCC(C)(C)O)C(=O)O[C@@H]1C(OC)=C[C@]23CCCN2CCc2cc4c(cc2[C@H]13)OCO4
T/C (dose: 0.25 mg/kg/injection, schedule: Q01DX009 (ip), vehicle: saline): 152 % of control
T/C (dose: 1.0 mg/kg/injection, schedule: Q01DX009 (ip), vehicle: saline): 150 % of control
T/C (dose: 2.0 mg/kg/injection, schedule: Q01DX009 (ip), vehicle: saline): 102 % of control
T/C (dose: 32.0 micrograms/kg/injection, schedule: Q01DX009 (ip), vehicle: saline): 104 % of control
T/C (dose: 63.0 micrograms/kg/injection, schedule: Q01DX009 (ip), vehicle: saline): 109 % of control
T/C (dose: 125.0 micrograms/kg/injection, schedule: Q01DX009 (ip), vehicle: saline): 113 % of control

C=CCOP(=O)(OCC=C)OCC=C
T/C [3]: 96 % of control
T/C [10]: 100 % of control

O=C1C(NCCO)=C(N2CC2)C(=O)C(NCCO)=C1N1CC1
T/C (dose: 0.19 mg/kg/injection, schedule: Q01DX009 (ip), vehicle: saline): 165 % of control and 202 % of control
T/C (dose: 0.37 mg/kg/injection, schedule: Q01DX009 (ip), vehicle: saline): 161 % of control
T/C (dose: 0.38 mg/kg/injection, schedule: Q01DX009 (ip), vehicle: saline): 191 % of control and 236 % of control
T/C (dose: 0.75 mg/kg/injection, schedule: Q01DX009 (ip), vehicle: saline): 221 % of control

OC(c1ccccc1)(c1c2ccccc2cc2ccccc12)C1CCC1 (configuration not stated)
T/C (dose: 75.0 mg/kg/injection, schedule: Q01DX009 (ip), vehicle: Klucel (hydroxypropylcellulose) (HPC)): 100 % of control
T/C (dose: 150.0 mg/kg/injection, schedule: Q01DX009 (ip), vehicle: Klucel (hydroxypropylcellulose) (HPC)): 102 % of control
T/C (dose: 300.0 mg/kg/injection, schedule: Q01DX009 (ip), vehicle: Klucel (hydroxypropylcellulose) (HPC)): 91 % of control

CCN(C(=O)Nc1ccc(OC)cc1)c1ccccc1
T/C [4]: 97 % of control
T/C [5]: 100 % of control
T/C [6]: 88 % of control

O=C(Nc1cccc(C(F)(F)F)c1)Nc1nccs1
T/C [3]: 93 % of control
T/C [10]: 95 % of control
T/C [4]: 100 % of control
T/C [5]: 101 % of control

CC1C[N-]CC(C)C1.CC1C[N-]CC(C)C1.CC1C[N-]CC(C)C1.CC1C[N-]CC(C)C1.[Cl][Rh][Cl] (configuration not stated)
T/C [7]: 91 % of control
T/C [8]: 107 % of control
T/C (dose: 3.0 mg/kg/injection, schedule: Q01DX009 (ip), vehicle: saline): 116 % of control
T/C (dose: 6.0 mg/kg/injection, schedule: Q01DX009 (ip), vehicle: saline with Tween-80): 93 % of control
T/C (dose: 6.0 mg/kg/injection, schedule: Q01DX009 (ip), vehicle: saline): 116 % of control

O=C1CNC(c2ccccc2)c2cc(Cl)ccc2N1 (configuration not stated)
T/C [2]: 107 % of control
T/C [3]: 97 % of control
T/C [10]: 107 % of control
T/C [4]: 94 % of control
T/C [5]: 102 % of control
